Experimental data reported in patent US20250066351A1, “PYRAZOLO[1,5-A]PYRIDIN-2,3-YL AMIDES AS KV7 CHANNEL ACTIVATORS” (Biohaven Therapeutics Ltd., priority 2022, published 2025).

Molecular target: T1, hKv7.2/7.3 (Homo sapiens, UniProt O43525+O43526)
T1 construct: host or cells: HEK cells, tetracycline-inducible expression
Assay: Kv7.2/7.3 Activation Assay, QPatch planar patch-clamp single concentration screen
Type: cell-based
Details: increase in current over baseline, Kv7.2/Kv7.3 co-expressing HEK cells, compound concentration 3 μM, steady-state current at end of 2 s pulse to −30 mV
Method: The ability of compounds to potentiate K-currents in Kv7.2/7.3 containing HEK cells was assessed using planar patch-clamp on the QPatch automated screening platform.
Cell Line: The hKv7.2/7.3 cell line was obtained from Chantest (Cleveland, OH 44128) cat. #CT6147. These HEK cells will express the Kv7.2/7.3 ion channels when induced.
Cell Culture: Cells were maintained in a media containing DMEM/F12; 50/50 (GIBCO cat. #11330), 10% Fetal Bovine Serum (FBS) (GIBCO cat. #26140), 100 units/mL Penicillin-Streptomycin (GIBCO cat. #15140), 0.005 mg/mL Blasticidin (INVIVOGEN cat. #ant-bl-1), 0.5 mg/mL Geneticin (GIBCO cat. #10131), 0.1 mg/mL Zeocin (GIBCO cat. #R25001). Cells used in the electrophysiology assay were maintained in a media without Blasticidin, Geneticin and Zeocin for 2 days and channel expression was induced by adding tetracycline (BIOLINE cat. #BIO-87030) at a final concentration of […]. Cells were grown in T-175 flask to ˜75% confluency. Currents were recorded 24 hours after channel induction.
Compound Plates: Test compounds were prepared by performing serial dilutions on a Biomek NX^P (BECKMAN COULTER). Final dilutions were made in external recording solution with a final DMSO concentration of 0.1% DMSO. For single concentration screens each plate had 10 μM retigabine as a positive control and 0.1% DMSO as a negative control.
Electrophysiology: On the day of the experiment cells were washed with Hank's Balanced Salt Solution (HBBS) (GIBCO cat. #14175) and harvested with Tryple (GIBCO cat. #12604). Cells were then centrifuged at 2000 rpm for 5 minutes and resuspended in CHO—S-SFM (GIBCO cat. #12052) at […]. Cells were stirred for 30 minutes before experiments were started. External recording solution contained (in mM): NaCl (145), KCl (4), CaCl2 (2), MgCl2 (1), HEPES (10) and Glucose (10); pH was adjusted to 7.4 with NaOH and the osmolarity was adjusted to 300-305 mOsM with sucrose if necessary. Internal solution contained (in mM): KCl (125), KF (10), EGTA (5), Na2ATP (5), MgCl2 (3.2), HEPES (5); pH was adjusted to 7.2 with KOH and the osmolarity was adjusted to 298-302 mOsM with sucrose.
Potassium channel activity was measured on the QPatch HTX (Sophion Bioscience) using QPlates with 48-wells/plate. Each cell was taken as an independent experiment and only one compound was tested per well. Potassium channel activity was elicited by holding at −80 mV and stepping to −30 mV for 2 s followed by a 100 ms pulse to −120 mV.
Single concentration screen: Baseline conditions were obtained by recording 5 sweeps in the external solution only, this was repeated for three applications of the external solution. The effect of test compounds on elicited current was then assessed by recording 5 sweeps in the presence of a 3 μM compound solution. The steady-state current at the end of the 2 s pulse to −30 mV was measured to determine the fold increase from baseline.

| Structure (SMILES) | QPatch Kv7.2/7.3 Activity |
| --- | --- |
| CC(C)(F)CC(=O)Nc1nn2ccc(C(F)(F)F)cc2c1C1CCC1 [Example 64, N-(3-cyclobutyl-5-(trifluoromethyl)pyrazolo [1,5-a]pyridin-2-yl)-3-fluoro-3-methylbutanamide] | +++ (>6-fold (+++)) |
| CC(C)(C)CC(=O)Nc1nn2c(C(F)F)cccc2c1C1CCC1 [Example 65, N-(3-cyclobutyl-7-(difluoromethyl)pyrazolo [1,5-a]pyridin-2-yl)-3,3-dimethylbutanamide] | ++ (4.0-5.99 (++)) |
| Cn1ccc(-c2c(NC(=O)CC(C)(C)O)nn3ccc(C(F)(F)F)cc23)n1 [Example 67, 3-hydroxy-3-methyl-N-(3-(1-methyl-1H-pyrazol-3-yl)-5-(trifluoromethyl)pyrazolo [1,5-a]pyridin-2-yl)butanamide] | − (<1.2-fold (−)) |
| CC(C)(O)CC(=O)Nc1nn2ccc(Cl)cc2c1-c1ccc(OC(F)(F)F)cc1 [Example 68, N-(5-chloro-3-(4-(trifluoromethoxy)phenyl)pyrazolo[1,5-a]pyridin-2-yl)-3-hydroxy-3-methylbutanamide] | + (2.0-3.99 (+)) |
| CC(C)(O)CC(=O)Nc1nn2c(C3CC3)cccc2c1C1CCC1 [Example 70, N-(3-cyclobutyl-7-cyclopropylpyrazolo [1,5-a]pyridin-2-yl)-3-hydroxy-3-methylbutanamide] | + (2.0-3.99 (+)) |
| C[C@](O)(CC(=O)Nc1nn2ccc(Cl)cc2c1-c1ccc(F)cc1)c1ccccc1 [Example 71, (S)-N-(5-chloro-3-(4-fluorophenyl)pyrazolo [1,5-a]pyridin-2-yl)-3-hydroxy-3-phenylbutanamide] | + (2.0-3.99 (+)) |
| CC(C)(O)CC(=O)Nc1nn2c(C(F)F)cccc2c1C1CCC1 [Example 72, N-(3-cyclobutyl-7-(difluoromethyl)pyrazolo [1,5-a]pyridin-2-yl)-3-hydroxy-3-methylbutanamide] | +/− (1.2-1.99-fold (+/−)) |
| CC(C)(C)CC(=O)Nc1nn2ccc(C3(O)CCC3)cc2c1C1CCC1 [Example 74, N-(3-cyclobutyl-5-(1-hydroxycyclobutyl)pyrazolo[1,5-a]pyridin-2-yl)-3,3-dimethylbutanamide] | ++ (4.0-5.99 (++)) |
| CC(C)(C)CC(=O)Nc1nn2c(C(F)(F)F)cccc2c1-c1ccc(F)cc1 [Example 75, N-(3-(4-fluorophenyl)-7-(trifluoromethyl)pyrazolo [1,5-a]pyridin-2-yl)-3,3-dimethylbutanamide] | − (<1.2-fold (−)) |
| C[C@](O)(CC(=O)Nc1nn2c(C(F)(F)F)cccc2c1-c1ccc(F)cc1)c1ccccc1 [Example 78, (S)-N-(3-(4-fluorophenyl)-7-(trifluoromethyl)pyrazolo [1,5-a]pyridin-2-yl)-3-hydroxy-3-phenylbutanamide] | + (2.0-3.99 (+)) |
| CC(C)(C)CC(=O)Nc1nn2ccc(C(C)(C)O)cc2c1-c1ccc(F)cc1 [Example 79, N-(3-(4-fluorophenyl)-5-(2-hydroxypropan-2-yl)pyrazolo[1,5-a]pyridin-2-yl)-3,3-dimethylbutanamide] | ++ (4.0-5.99 (++)) |
| CC(C)(O)CC(=O)NNc1nn2ccc(C(F)(F)F)cc2c1-c1ccc(F)cc1 [Example 85, N′-(3-(4-fluorophenyl)-5-(trifluoromethyl)pyrazolo [1,5-a]pyridin-2-yl)-3-hydroxy-3-methylbutanehydrazide] | − (<1.2-fold (−)) |

Continued, values first:

| QPatch Kv7.2/7.3 Activity | Structure (SMILES) |
| --- | --- |
| + (2.0-3.99 (+)) | C[C@](O)(CC(=O)Nc1nn2ccc(Cl)cc2c1-c1ccc(F)cc1)C(F)(F)F [Example 62, (S)-N-(5-chloro-3-(4-fluorophenyl)pyrazolo [1,5-a]pyridin-2-yl)-4,4,4-trifluoro-3-hydroxy-3-methylbutanamide] |
| + (2.0-3.99 (+)) | C[C@@](O)(CC(=O)Nc1nn2ccc(Cl)cc2c1-c1ccc(F)cc1)C(F)(F)F [Example 63, (R)-N-(5-chloro-3-(4-fluorophenyl)pyrazolo [1,5-a]pyridin-2-yl)-4,4,4-trifluoro-3-hydroxy-3-methylbutanamide] |
| − (<1.2-fold (−)) | CC(C)(O)CC(=O)Nc1nn2c(-c3ccc(F)cc3)cccc2c1C1CCC1 [Example 66, N-(3-cyclobutyl-7-(4-fluorophenyl)pyrazolo [1,5-a]pyridin-2-yl)-3-hydroxy-3-methylbutanamide] |
| + (2.0-3.99 (+)) | CC(C)(C)OC(=O)Nc1nn2ccc(Br)cc2c1C1CCC1 [Example 69, tert-butyl (5-bromo-3-cyclobutylpyrazolo[1,5-a]pyridin-2-yl)carbamate] |
| − (<1.2-fold (−)) | C[C@@](O)(CC(=O)Nc1nn2cccc(F)c2c1C1CCC1)c1ccccn1 [Example 73, (R)-N-(3-cyclobutyl-4-fluoropyrazolo [1,5-a]pyridin-2-yl)-3-hydroxy-3-(pyridin-2-yl)butanamide] |
| + (2.0-3.99 (+)) | CC(C)(O)CC(=O)Nc1nn2c(C(F)(F)F)cccc2c1-c1ccc(F)cc1 [Example 76, N-(3-(4-fluorophenyl)-7-(trifluoromethyl)pyrazolo [1,5-a]pyridin-2-yl)-3-hydroxy-3-methylbutanamide] |
| + (2.0-3.99 (+)) | CCC(O)(CC)CC(=O)Nc1nn2ccc(C(F)(F)F)cc2c1-c1ccc(F)cc1 [Example 77, 3-ethyl-N-(3-(4-fluorophenyl)-5-(trifluoromethyl)pyrazolo [1,5-a]pyridin-2-yl)-3-hydroxypentanamide] |
| − (<1.2-fold (−)) | CC(C)(C)CC(=O)Nc1nn2ccc(C(F)(F)F)cc2c1C#N [Example 80, N-(3-cyano-5-(trifluoromethyl)pyrazolo [1,5-a]pyridin-2-yl)-3,3-dimethylbutanamide] |
| ++ (4.0-5.99 (++)) | CC(C)(C)CC(=O)Nc1nn2c(Cl)cc(Cl)cc2c1-c1ccc(F)cc1 [Example 81, N-(5,7-dichloro-3-(4-fluorophenyl)pyrazolo [1,5-a]pyridin-2-yl)-3,3-dimethylbutanamide] |
| +++ (>6-fold (+++)) | CC(C)(C)CC(=O)Nc1nn2ccc(Cl)cc2c1-c1ccc(F)cc1 [Example 82, N-(5-chloro-3-(4-fluorophenyl)pyrazolo [1,5-a]pyridin-2-yl)-3,3-dimethylbutanamide] |
| + (2.0-3.99 (+)) | O=C(CC(O)(CF)CF)Nc1nn2ccc(C(F)(F)F)cc2c1C1CCC1 [Example 83, N-(3-cyclobutyl-5-(trifluoromethyl)pyrazolo[1,5-a]pyridin-2-yl)-4-fluoro-3-(fluoromethyl)-3-hydroxybutanamide] |
| +/− (1.2-1.99-fold (+/−)) | CC(C)(C)CC(=O)NNc1nn2ccc(C(F)(F)F)cc2c1-c1ccc(F)cc1 [Example 84, N′-(3-(4-fluorophenyl)-5-(trifluoromethyl)pyrazolo [1,5-a]pyridin-2-yl)-3,3-dimethylbutanehydrazide] |
| +/− (1.2-1.99-fold (+/−)) | CC(C)(C)CC(=O)Nc1nn2ccc(C(F)(F)F)cc2c1C(C)(C)O [Example 86, N-(3-(2-hydroxypropan-2-yl)-5-(trifluoromethyl)pyrazolo[1,5-a]pyridin-2-yl)-3,3-dimethylbutanamide] |
| + (2.0-3.99 (+)) | C[C@@](O)(CC(=O)Nc1nn2ccc(C(F)(F)F)cc2c1C1CCC1)C1CC1 [Example 87, (R)-N-(3-cyclobutyl-5-(trifluoromethyl)pyrazolo[1,5-a]pyridin-2-yl)-3-cyclopropyl-3-hydroxybutanamide] |
